Results reported in the supplement of paper PMC5412046.
Structures can show the parent of a compound that is named as a salt.

System: SB.msgc-1
Assay: AC50 for growth inhibition (viability) (log10 M); higher = less potent
Details: SB.msgc-1 (sporadic gastric cancer)
How it was run: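 In 1536-well plates, each well held 500 patient-derived gastric cancer cells (hereditary or sporadic) in 5 μL medium. Compound in DMSO, 23 nL per well, was pinned in 11 threefold dilutions starting at a final 46 μM. Following 48 h of exposure, cells had CellTiter-Glo for 30 min at room temperature before ViewLux luminescence reading. Only high-quality curve classes from four-parameter fits of DMSO-normalised viability gave the log half-maximal activity concentration.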

Structure (SMILES) | AC50 for growth inhibition (log10 M)
Cc1ccc(NC(=O)c2ccc(CN3CCN(C)CC3)cc2)cc1Nc1nc(-c2cccnc2)cs1 [Masitinib] | -4.93
Cn1cnc([N+](=O)[O-])c1Sc1ncnc2nc[nH]c12 [Azathioprine] | -5.43
CCCCCCCN(CC)CCCC(O)c1ccc(NS(C)(=O)=O)cc1.CCCCCCCN(CC)CCCC(O)c1ccc(NS(C)(=O)=O)cc1.O=C(O)/C=C/C(=O)O (stereo not drawn) [Ibutilide fumarate] | -4.68
COC(=O)Nc1ccc(-c2nc(N3CCOCC3)c3cnn(C4CCN(C(=O)OC)CC4)c3n2)cc1 [WYE-354] | -6.03
COc1cccc(OC)c1-c1cc(C(=O)NC2(C(=O)O)C3CC4CC(C3)CC2C4)nn1-c1ccnc2cc(Cl)ccc12 (stereo not drawn) [Meclinertant] | -4.68
CCCCCCCCCCCC/1=C(O)/C(=O)/C=C(O)\C1=O [Embelin] | -6.03
Nc1ncnc2c1ncn2[C@@H]1O[C@H](CO)C[C@H]1O [Cordycepin] | -4.73
CC(C)(C)OC(=O)Nc1ccc(-c2cc(C(=O)NCCCCCCC(=O)NO)no2)cc1 [ISOX] | -5.58
O=C1Nc2ccccc2/C1=C1\Nc2ccccc2C1=O [Indirubin] | -5.18
Nc1nc(N)c2nc(CNc3ccc(C(=O)NC(CCC(=O)O)C(=O)O)cc3)cnc2n1 (stereo not drawn) [Aminopterin] | -7.63
N=C(CCSCc1csc(N=C(N)N)n1)N[S+](N)(=O)[O-] [Famotidine] | -4.78
CC[C@]12\C=C/CN3CC[C@]4([C@@H](N(C)C5=CC(=C(C=C45)[C@]6(C[C@H]7C[C@H](CN(C7)CC8=C6[NH]C9=C8C=CC=C9)C(C)(F)F)C(=O)OC)OC)[C@](O)([C@@H]1OC(C)=O)C(=O)OC)[C@H]23 [Vinflunine] | -7.83
N=C(N)NC(=N)N1CCOCC1 [Moroxydine] | -4.78
CC[C@H](CO)Nc1nc(NCc2ccccc2)c2ncn(C(C)C)c2n1 [Seliciclib] | -4.68
Cc1cc(OCCC[S+](C)(=O)[O-])cc(C)c1-c1cccc(COc2ccc3c(c2)OC[C@H]3CC(=O)O)c1 [TAK-875] | -4.78
O=C/1\C=C(/OC(=C1)/C2=C3SC4=C(SC3=CC=C2)C=CC=C4)N5CCOCC5 [KU-0064] | -4.63
CC(C)(Sc1cc(C(C)(C)C)c(O)c(C(C)(C)C)c1)Sc1cc(C(C)(C)C)c(O)c(C(C)(C)C)c1 [Probucol] | -5.58
CNC(=O)c1ccc2c(c1)NC(=O)/C2=C(\Nc1cccc(CN(C)C)c1)c1ccccc1 | -4.93
C=C[C@H]1CN2CCC1C[C@H]2[C@H](O)c1ccnc2ccccc12 (stereo partly drawn) [Cinchonidine] | -4.98
CN(C)Cc1ccc(-c2nc3cccc4c3n2CCNC4=O)cc1 | -4.78
Oc1nc(-c2ccc(C(F)(F)F)cc2)nc2c1CSCC2 [NVP-XAV-939] | -4.68
CC(=O)N(C)c1cccc(-c2ccnc3c(C(=O)c4cccs4)cnn23)c1 [Indiplon] | -4.68
COc1cc(Cl)cn2c(-c3cccc(NC4CNC4)n3)cnc12 | -4.68

Structure (SMILES) | AC50 for growth inhibition (log10 M)
COC1=CC=C2[C@H]3CC[C@]4(C)[C@H](CC[C@H]4[C@@H]3CCC2=C1)NCCCCCCN5C(=O)\C=C/C5=O | -4.73
OC1=C(Cl)C=C(N\C2=C(\C(=O)NC2=O)C3=C(C=CC=C3)[N+]([O-])=O)C=C1 | -4.88
C[C@]12CCC(=O)C=C1CC[C@@H]1[C@@H]2CC[C@@]2(C)[C@H]1CC[C@]2(C)O [Methyltestosterone] | -4.42
COC1CCC(CC1)N(C(=O)C2CCC(C)CC2)C3=C(SC(=C3)\C4=C\CCCC4)C(O)=O (stereo not drawn) [VCH-916] | -5.28
O=C1\C=C/C[C@@H]2[C@H]3CCCN4CCC[C@@H](CN12)[C@@H]34 [Sophocarpine] | -4.78
Cc1cccc(Nc2nc(-c3ccncc3)cs2)c1 | -4.68
ClC1=C[NH]N=C1C\2NC(=N\C3=C2C(=O)CCC3)/NC4=NC5=CC=CC=C5O4 (stereo not drawn) | -4.78
COCCOc1ccc2c(c1)ncn2-c1ccc2cccc(N3CCC(N)CC3)c2n1 | -5.23
CC(=O)O[C@@]1(CC[C@H]2[C@@H]3\C=C(C)/C4=C/C(=O)CC[C@]4(C)[C@H]3CC[C@]12C)C(C)=O [Megestrol acetate] | -5.23
Cc1cc(/C=c2/sc3nc4ccccc4n3c2=O)c(C)n1-c1ccccc1 [ITX3] | -4.88
CC(C)[C@H](CO)Nc1nc(Nc2cccc(Cl)c2)c2ncn(C(C)C)c2n1 [Purvalanol A] | -4.68
Clc1ccc(CCC(Cn2ccnc2)Sc2c(Cl)cccc2Cl)cc1 (stereo not drawn) [Butoconazole nitrate] | -4.68
CC(C)(C)c1cnc(CSc2cnc(NC(=O)C3CCNCC3)s2)o1 [SNS-032] | -7.18
Cc1nc(NC(=O)N2CCC[C@H]2C(N)=O)sc1-c1ccnc(C(C)(C)C(F)(F)F)c1 [BYL-719] | -4.88
Clc1ccc(C(Cn2ccnc2)OCc2ccc(Sc3ccccc3)cc2)c(Cl)c1 (stereo not drawn) [Fenticonazole nitrate] | -4.73
CC[C@]1(O)C[C@@H]2CN(CCc3c([nH]c4ccccc34)[C@@](C(=O)OC)(c3cc4c(cc3OC)N(C)[C@H]3[C@@](O)(C(N)=O)[C@H](O)[C@]5(CC)C=CCN6CC[C@]43[C@@H]65)C2)C1 [Vindesine sulfate] | -8.68
CC(=O)[C@H]1CC[C@H]2[C@@H]3C/C=C4/C[C@@H](O)CC[C@]4(C)[C@H]3CC[C@]12C [Pregnenolone] | -4.88
OC1=CC2=C(C=C1)C(=O)\C(=C(O2)\C3=CC(=C(O)C=C3)O)O [Fisetin] | -4.63
COc1cc(NCc2ccc3nc(N)nc(N)c3c2C)cc(OC)c1OC [Trimetrexate] | -5.83
CNC(=O)N1\N=C(\C2=CC=C(N)C=C2)C3=CC4=C(OCO4)C=C3CC1C (stereo not drawn) | -5.08
Cn1cnc2c(F)c(Nc3ccc(Br)cc3F)c(C(=O)NOCCO)cc21 [ARRY-162] | -6.63
CCC[S+](=O)([O-])Nc1ccc(F)c(C(=O)c2c[nH]c3ncc(Cl)cc23)c1F [PLX-4720] | -4.83
COC(=O)Nc1nc2ccc([S+]([O-])c3ccccc3)cc2[nH]1 (stereo not drawn) [Oxfendazole] | -4.63

Structure (SMILES) | AC50 for growth inhibition (log10 M)
CC[C@]1(O)C[C@H]2CN(CCC3=C([NH]C4=C3C=CC=C4)[C@@](C2)(C(=O)OC)C5=CC6=C(C=C5OC)N(C=O)[C@H]7[C@](O)([C@H](OC(C)=O)[C@]8(CC)\C=C/C[N@@]9CC[C@]67[C@H]89)C(=O)OC)C1 [Vincristine sulfate] | -8.48
CO[C@H]1O[C@@H]2O[C@@]3(C)CC[C@H]4[C@H](C)CC[C@@H]([C@H]1C)[C@@]24OO3 [Artemether] | -5.98
O=C(Nc1cc(Cl)cc2c1[nH]c1cnccc12)c1cccnc1 [PS-1145] | -4.73
NC(=O)N/N=C/c1ccc([N+](=O)[O-])o1 [Nitrofurazone] | -4.68
CC[C@H](/C=C/[C@@H](C)[C@H]1CC[C@H]2[C@@H]3CC=C4C[C@@H](O)CC[C@]4(C)[C@H]3CC[C@]12C)C(C)C [Stigmasterol] | -5.19
COc1ccc2c(c1)CC[C@@H](CN(C)CC(=O)O)[C@H]2c1ccccc1 | -5.63
CN(CCOc1ccc(CC2SC(=O)NC2=O)cc1)c1ccccn1 (stereo not drawn) [Rosiglitazone] | -5.18
O=C(NCc1ccncc1)C12C[C@H]3C[C@@H](C1)CC(c1ccc(Cl)cc1)(C3)C2 | -4.98
S=C1N\C=N/C2=C1[NH]C=N2 [6-mercaptopurine] | -5.63
Cc1cc(SCc2sc(-c3ccc(C(F)(F)F)c(F)c3)nc2C)ccc1OCC(=O)O [GW-0742] | -4.78
CC(C)(C)C1=NC2=C([NH]1)C3=CC=C(F)C=C3C4=C2\C=C/NC4=O [Merck 5] | -5.33
O=C(Nc1ccccc1Br)N[C@@H]1CCN(c2ccc(C(F)(F)F)cn2)C1 | -4.73
CC(C)[C@H](C(=O)Nc1ccc(C(=O)NO)cc1)c1ccccc1 [AR-42] | -6.18
Cc1nc2cnc3ccc(C#Cc4cccnc4)cc3c2n1-c1ccc(C(C)(C)C#N)cc1 [BAG-956] | -5.93
CC(N[C@H]1CCCC[C@@H]1NC(=O)c1ccc(Cl)cc1)c1cccc2ccccc12 (stereo partly drawn) [Calhex 231] | -5.93
O=C(O)c1ccc(-n2nc(-c3ccccc3O)nc2-c2ccccc2O)cc1 [Deferasirox] | -4.93
C[S+](=O)([O-])c1cc(F)cc2c3c(n(Cc4ccc(Cl)cc4)c12)[C@@H](CC(=O)O)CC3 [Laropiprant] | -5.43
O=C1CCc2ccc(OCCCCN3CCN(c4cccc(Cl)c4Cl)CC3)cc2N1 [Aripiprazole] | -4.73
CN(C)CCOc1ccc(-c2nc(-c3ccncc3)c(-c3ccc4c(c3)CC/C4=N\O)[nH]2)cc1 | -4.68
C[S+](=O)([O-])N(Cc1ccco1)CC(O)Cn1c2ccccc2c2ccccc21 (stereo not drawn) [KL001] | -4.68
Cc1c(-c2cccc3c(CCCOc4cccc5ccccc45)c(C(=O)O)n(Cc4cccnc4)c23)c(COc2ccc(N3CCN([S+](=O)([O-])N(C)C)CC3)cc2)nn1C | -4.63
OCc1ccc(-c2ccc(-c3ccc(CO)s3)o2)s1 [RITA] | -4.93
